Reference: publication PMC13254586, “C-terminal dimerization motifs control asynchronous chain elongation during modular polyketide biosynthesis [drawing 1]” (The Journal of Biological Chemistry, 2026)

What was measured:
M1-DD = molecular target: T1, M1-DD (Amycolatopsis mediterranei, UniProt O54666); assay: cryo-EM structure; format: binding; conditions: covalent on CP Ser1538; Ppant occupies KS active site tunnel; elongation mode; 3.22 Å; Fab 1B2 bound
T1 construct: gene rifA; RIFS module 1 (KS-AT-DH0-KR-CP) with N- and C-terminal docking domains of the erythromycin assembly line, C-terminal His6; holo form, E. coli BAP1; homodimer
T1 sequence (O54666 631-2179): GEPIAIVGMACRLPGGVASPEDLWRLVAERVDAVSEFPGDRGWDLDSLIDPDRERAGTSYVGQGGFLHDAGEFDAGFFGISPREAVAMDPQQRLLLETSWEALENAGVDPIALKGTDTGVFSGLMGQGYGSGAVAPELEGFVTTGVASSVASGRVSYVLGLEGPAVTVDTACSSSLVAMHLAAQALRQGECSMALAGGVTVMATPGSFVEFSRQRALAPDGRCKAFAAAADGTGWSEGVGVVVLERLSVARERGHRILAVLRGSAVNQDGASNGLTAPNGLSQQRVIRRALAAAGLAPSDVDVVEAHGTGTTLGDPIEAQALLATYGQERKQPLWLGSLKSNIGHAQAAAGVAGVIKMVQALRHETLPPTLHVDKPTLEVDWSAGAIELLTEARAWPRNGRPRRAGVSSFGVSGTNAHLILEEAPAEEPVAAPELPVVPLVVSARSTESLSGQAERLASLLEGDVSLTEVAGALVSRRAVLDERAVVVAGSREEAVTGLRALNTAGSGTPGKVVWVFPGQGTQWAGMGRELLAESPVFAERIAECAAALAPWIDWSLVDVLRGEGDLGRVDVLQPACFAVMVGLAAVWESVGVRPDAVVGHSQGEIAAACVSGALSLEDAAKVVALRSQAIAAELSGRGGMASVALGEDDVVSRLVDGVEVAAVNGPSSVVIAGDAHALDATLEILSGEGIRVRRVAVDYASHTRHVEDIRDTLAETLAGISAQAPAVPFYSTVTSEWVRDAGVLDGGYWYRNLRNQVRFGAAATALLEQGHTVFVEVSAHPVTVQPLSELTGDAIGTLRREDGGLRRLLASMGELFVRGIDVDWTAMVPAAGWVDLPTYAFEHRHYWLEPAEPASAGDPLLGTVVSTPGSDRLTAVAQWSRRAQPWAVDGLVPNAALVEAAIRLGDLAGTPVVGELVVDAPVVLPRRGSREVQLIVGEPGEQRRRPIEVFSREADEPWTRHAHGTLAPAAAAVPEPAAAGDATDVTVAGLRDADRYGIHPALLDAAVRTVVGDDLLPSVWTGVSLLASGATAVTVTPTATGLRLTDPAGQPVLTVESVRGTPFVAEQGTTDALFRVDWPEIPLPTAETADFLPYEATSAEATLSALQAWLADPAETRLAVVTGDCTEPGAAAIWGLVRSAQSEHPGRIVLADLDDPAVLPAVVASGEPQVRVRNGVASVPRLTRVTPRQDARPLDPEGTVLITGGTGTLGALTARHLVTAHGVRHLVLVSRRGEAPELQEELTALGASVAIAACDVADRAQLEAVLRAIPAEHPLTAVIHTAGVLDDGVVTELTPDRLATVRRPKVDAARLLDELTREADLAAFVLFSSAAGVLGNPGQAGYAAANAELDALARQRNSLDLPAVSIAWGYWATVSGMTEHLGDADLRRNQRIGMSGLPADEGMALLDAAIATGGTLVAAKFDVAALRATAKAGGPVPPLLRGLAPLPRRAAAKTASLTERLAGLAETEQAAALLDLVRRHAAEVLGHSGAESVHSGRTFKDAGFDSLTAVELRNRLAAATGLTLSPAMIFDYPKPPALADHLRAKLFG

LM-M1-DD = molecular target: T2, LM-M1-DD (Amycolatopsis mediterranei, UniProt O54666); assay: LC-MS/MS-MRM of hydrolysed diketide, single turnover; format: biochemical; conditions: ATP/Mg2+, racemic MeMal-CoA, pH 7.3, room temperature
T2 construct: gene rifA; RIFS loading module plus module 1 bimodule (A-CP, KS-AT-DH0-KR-CP) with C-terminal docking domain (DD) of the erythromycin synthase; holo form, E. coli BAP1; Ni-NTA purified; homodimer
T2 sequence (O54666 1-2179 limits assumed): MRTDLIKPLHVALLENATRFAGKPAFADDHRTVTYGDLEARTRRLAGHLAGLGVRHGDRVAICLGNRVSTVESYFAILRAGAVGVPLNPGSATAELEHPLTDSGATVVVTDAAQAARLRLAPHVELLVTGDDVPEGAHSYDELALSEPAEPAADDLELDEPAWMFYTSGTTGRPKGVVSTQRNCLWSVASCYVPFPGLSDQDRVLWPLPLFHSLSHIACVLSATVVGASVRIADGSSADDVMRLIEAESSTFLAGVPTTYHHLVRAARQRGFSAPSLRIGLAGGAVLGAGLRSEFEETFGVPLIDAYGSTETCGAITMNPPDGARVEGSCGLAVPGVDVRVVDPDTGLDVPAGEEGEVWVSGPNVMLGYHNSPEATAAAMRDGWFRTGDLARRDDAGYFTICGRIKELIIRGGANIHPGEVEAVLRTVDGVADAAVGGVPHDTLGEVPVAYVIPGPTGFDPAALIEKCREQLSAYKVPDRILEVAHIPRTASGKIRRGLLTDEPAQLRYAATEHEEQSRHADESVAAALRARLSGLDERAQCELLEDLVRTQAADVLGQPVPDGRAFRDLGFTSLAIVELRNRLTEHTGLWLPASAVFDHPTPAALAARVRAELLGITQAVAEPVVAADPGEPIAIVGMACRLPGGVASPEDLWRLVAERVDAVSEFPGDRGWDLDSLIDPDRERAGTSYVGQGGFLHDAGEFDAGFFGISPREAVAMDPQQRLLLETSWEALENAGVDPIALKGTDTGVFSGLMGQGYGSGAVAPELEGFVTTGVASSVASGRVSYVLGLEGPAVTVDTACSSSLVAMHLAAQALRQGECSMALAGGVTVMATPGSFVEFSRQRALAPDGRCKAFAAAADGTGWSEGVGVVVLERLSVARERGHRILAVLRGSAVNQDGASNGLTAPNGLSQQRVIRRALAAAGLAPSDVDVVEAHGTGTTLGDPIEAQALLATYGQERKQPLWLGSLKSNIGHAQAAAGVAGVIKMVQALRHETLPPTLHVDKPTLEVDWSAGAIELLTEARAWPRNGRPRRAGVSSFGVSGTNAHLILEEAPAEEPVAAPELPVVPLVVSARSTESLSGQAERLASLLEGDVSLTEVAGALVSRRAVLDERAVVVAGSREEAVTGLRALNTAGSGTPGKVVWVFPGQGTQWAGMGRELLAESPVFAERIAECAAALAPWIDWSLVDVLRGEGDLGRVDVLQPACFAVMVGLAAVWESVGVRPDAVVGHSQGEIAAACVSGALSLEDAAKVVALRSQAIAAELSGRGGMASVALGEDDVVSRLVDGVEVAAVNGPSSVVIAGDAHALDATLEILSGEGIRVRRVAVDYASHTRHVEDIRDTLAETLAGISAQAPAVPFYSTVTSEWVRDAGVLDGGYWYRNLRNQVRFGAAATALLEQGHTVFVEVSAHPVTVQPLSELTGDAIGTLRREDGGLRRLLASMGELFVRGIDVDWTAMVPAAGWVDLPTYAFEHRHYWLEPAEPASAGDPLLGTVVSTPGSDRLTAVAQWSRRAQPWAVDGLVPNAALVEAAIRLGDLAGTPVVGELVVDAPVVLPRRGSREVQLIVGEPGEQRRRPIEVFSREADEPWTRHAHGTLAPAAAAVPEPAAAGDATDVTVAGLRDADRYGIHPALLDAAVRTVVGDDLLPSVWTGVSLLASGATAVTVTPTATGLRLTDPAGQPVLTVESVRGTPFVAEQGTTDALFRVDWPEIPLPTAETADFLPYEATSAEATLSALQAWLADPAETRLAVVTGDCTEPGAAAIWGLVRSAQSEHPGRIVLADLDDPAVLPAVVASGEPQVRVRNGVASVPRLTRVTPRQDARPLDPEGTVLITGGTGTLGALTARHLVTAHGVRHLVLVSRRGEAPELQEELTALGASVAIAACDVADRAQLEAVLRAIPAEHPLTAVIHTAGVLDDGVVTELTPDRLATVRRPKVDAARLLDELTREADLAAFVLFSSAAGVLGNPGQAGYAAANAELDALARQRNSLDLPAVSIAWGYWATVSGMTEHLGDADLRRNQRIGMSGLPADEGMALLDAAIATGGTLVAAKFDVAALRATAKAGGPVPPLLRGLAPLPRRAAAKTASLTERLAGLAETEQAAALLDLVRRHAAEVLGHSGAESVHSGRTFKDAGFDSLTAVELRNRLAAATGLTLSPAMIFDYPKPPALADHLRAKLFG

LM-M1-TEII° = molecular target: T3, LM-M1-TEII° (Amycolatopsis mediterranei, UniProt O54666); assay: as above; format: biochemical; conditions: ATP/Mg2+, racemic MeMal-CoA, NADPH; pH 7.3; room temperature
T3 construct: gene rifA; holo form, E. coli BAP1; homodimer

SMILES: CC(C)(COP(=O)(O)O)[C@@H](O)C(=O)NCCC(=O)NCCS [4′-phosphopantetheine]
- cryo-EM structure (M1-DD): within the KS active site tunnel occupied by the Ppant cofactor

SMILES: O=C(O)c1ccccc1 [benzoate]
- LC-MS/MS-MRM of hydrolysed diketide, single turnover (LM-M1-DD; NADPH): both LM-M1-DD and LM-M1-TEII° were catalytically active
- LC-MS/MS-MRM of hydrolysed diketide, single turnover (LM-M1-TEII°): both LM-M1-DD and LM-M1-TEII° were catalytically active

SMILES: NC(=O)C1=CN([C@@H]2O[C@H](COP(=O)(O)OP(=O)(O)OC[C@H]3O[C@@H](n4cnc5c(N)ncnc54)[C@H](OP(=O)(O)O)[C@@H]3O)[C@@H](O)[C@H]2O)C=CC1 [NADPH]
- LC-MS/MS-MRM of hydrolysed diketide, single turnover (LM-M1-DD; 1 mM NADPH present or absent, benzoate): expected time- and NADPH-dependent accumulation of hydrolyzed keto-d2
